Assay results from PMC5522996, “Big conductance calcium‐activated potassium channel openers control spasticity without sedation” (British Journal of Pharmacology, 2017).

Key:
[1] = tested on: spastic ABH mice with EAE; assay: Spasticity: resistance to hindlimb flexion against a strain gauge
ABH mice [2] = assay: Temperature testing (hypothermia); type: in vivo, mouse; settings: for Temperature loss: 10 mg·kg^−1 i.v.
Procedure: These recordings were assessed 20 min following administration of compounds. Results are expressed as mean ± SEM, and were analysed by Student's t‐test or a one‐way ANOVA with Bonferroni post hoc test using Sigma/StatV3/Sigmpaplot V9 or V11 software (Pryce et al., 2014).

ABH mice [3] = assay: Open‐field activity monitoring (hypomotility); type: in vivo, mouse
Procedure: Motor activity was assessed using 27.9 × 27.9 cm open field activity monitor chambers and computer software (Med Associates Inc, St. Albans, VT, USA.). This was typically performed in a darkened room. Recordings were initiated once the mouse entered the chamber and continued for 5 min. These chambers, allowing four simultaneous recordings of individual mice and were fitted with infrared beams that could detect movement in the X, Y planes. The total distance travelled (cm) was recorded. Results are expressed as mean ± SEM. These were analysed by Student's paired t‐test or a one‐way ANOVA with Bonferroni post hoc test, using SigmaStat V3/Sigmaplot V9 or V11 software (Systat Ltd Hounslow, UK. Al‐Izki et al., 2012).

BKCa channel = biological target: T1, BKCa channel (Homo sapiens, UniProt Q12791+Q86W47); assay: Single‐channel inside‐out patch clamp, EA.hy926 cells; type: cell-based; settings: 3 μM, inner surface of membrane, 40 mV, 0.3 μM free Ca^2+
T1 construct: host or cells: EA.hy926 endothelial cells
T1 sequence (Q12791 whole entry): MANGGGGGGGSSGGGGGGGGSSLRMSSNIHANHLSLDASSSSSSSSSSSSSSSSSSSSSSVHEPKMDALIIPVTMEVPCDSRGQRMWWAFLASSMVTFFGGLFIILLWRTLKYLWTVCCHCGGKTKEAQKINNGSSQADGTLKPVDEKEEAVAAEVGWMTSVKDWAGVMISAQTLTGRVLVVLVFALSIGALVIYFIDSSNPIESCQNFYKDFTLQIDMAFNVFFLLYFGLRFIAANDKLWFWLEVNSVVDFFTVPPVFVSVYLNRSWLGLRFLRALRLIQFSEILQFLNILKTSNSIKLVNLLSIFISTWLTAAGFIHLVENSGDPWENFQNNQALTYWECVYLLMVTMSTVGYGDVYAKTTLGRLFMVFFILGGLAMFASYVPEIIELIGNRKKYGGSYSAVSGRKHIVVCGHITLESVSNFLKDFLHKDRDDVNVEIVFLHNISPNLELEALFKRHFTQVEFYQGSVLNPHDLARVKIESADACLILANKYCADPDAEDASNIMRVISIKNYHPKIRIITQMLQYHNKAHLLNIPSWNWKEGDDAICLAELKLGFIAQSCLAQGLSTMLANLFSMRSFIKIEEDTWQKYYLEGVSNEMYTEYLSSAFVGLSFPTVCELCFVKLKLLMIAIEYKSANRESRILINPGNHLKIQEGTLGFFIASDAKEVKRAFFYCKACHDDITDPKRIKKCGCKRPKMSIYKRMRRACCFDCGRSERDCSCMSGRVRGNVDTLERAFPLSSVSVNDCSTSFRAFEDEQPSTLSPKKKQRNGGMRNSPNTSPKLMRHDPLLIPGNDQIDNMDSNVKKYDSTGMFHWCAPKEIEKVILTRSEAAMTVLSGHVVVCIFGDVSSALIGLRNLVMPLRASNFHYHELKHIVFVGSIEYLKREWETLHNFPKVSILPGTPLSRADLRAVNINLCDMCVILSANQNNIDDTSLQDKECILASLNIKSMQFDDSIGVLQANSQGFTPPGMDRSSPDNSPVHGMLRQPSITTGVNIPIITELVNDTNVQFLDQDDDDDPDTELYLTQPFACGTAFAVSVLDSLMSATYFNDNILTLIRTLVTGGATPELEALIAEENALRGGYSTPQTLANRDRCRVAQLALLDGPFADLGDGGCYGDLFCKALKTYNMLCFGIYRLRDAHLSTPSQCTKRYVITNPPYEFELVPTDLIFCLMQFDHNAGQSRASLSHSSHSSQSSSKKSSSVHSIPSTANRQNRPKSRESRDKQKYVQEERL
T1 sequence (Q86W47 whole entry): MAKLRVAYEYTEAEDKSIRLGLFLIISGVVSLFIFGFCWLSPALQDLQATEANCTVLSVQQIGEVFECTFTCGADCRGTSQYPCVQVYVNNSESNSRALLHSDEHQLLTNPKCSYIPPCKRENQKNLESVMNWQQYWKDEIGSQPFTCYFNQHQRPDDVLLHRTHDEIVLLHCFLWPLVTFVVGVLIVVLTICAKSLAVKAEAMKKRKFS
Procedure: The human EA.hy926 endothelial cells (ATCC, Manassas, USA) were grown in DMEM containing 10% FCS and 1% HAT (5 mM hypoxanthine, 20 μM aminopterin and 0.8 mM thymidine) and were maintained in an incubator at 37°C in 5% CO2 atmosphere (Bondarenko et al., 2013). Human HNC‐2 neuronal cells were obtained from ATCC. For experiments, cells were plated on glass coverslips. Single‐channel recordings were obtained from excised inside‐out membrane patches in symmetrical solutions using the patch‐clamp technique. All patch‐clamp experiments were performed at room temperature with the use of a water hydraulic micromanipulator (WR‐6, Narishige, Japan). […] The pipettes were filled with 140 mM KCl, 10 mM HEPES, 1 mM MgCl2, 5 mM EGTA and […] CaCl2 buffered to pH 7.2 by adding KOH. Cells were super‐perfused with a bath solution containing 140 mM NaCl, 5 mM KCl, 1.2 mM MgCl2, 10 mM HEPES, 10 mM glucose and 2.4 mM CaCl2. Following gigaseal formation, bath solution was switched to the following: 140 mM KCl, 10 mM HEPES, 1 mM MgCl2, 5 mM EGTA and a designated free Ca^2+ concentration, which was adjusted by adding different amounts of CaCl2 buffered to pH 7.2. (Bondarenko et al., 2011; Bondarenko et al., 2013). Single‐channel activity was expressed as NPo, where N represents the number of functional ion channels in the membrane patch and Po represents the open channel probability determined from idealized traces (Bondarenko et al., 2011). NPo was obtained from ≥20 s of continuous recording under each experimental condition. The effect of VSN16R was estimated after 3 min of continuous exposure to VSN16R‐containing solution. Data were analysed by ANOVA, and statistical significance was evaluated using Scheffés post hoc test of the Prism 5 software for Windows (GraphPad Software).

[4] = Plasma, brain and spinal cord levels in ABH mice with spastic EAE; type: in vivo, mouse; settings: after 5 mg·kg^−1 p.o. VSN16R, ABH mice with spastic EAE
Procedure: The stability of compounds when subjected to hepatic and plasma degradation was assessed in vitro by Inpharmatica, Cambridge, UK. Compounds (1 μM) were incubated with either pooled mouse liver microsomes (0.1 mg protein mL^−1) or pooled mouse plasma at 37°C for 0, 5, 10, 20 and 40 min before termination with acetonitrile containing warfarin as an analytical internal standard. Samples were centrifuged, and the resultant supernatant analysed for parent compound. The mass responses at baseline were taken as the 100% reference values against which the disappearance of the compound was measured. The natural log of the % remaining values was used to generate linear plots of disappearance of the compounds. Half‐life values were calculated from the slope of these plots. Hepatocyte metabolism was assessed by Cyprotex, Macclesfield, and 10 μM VSN16R was incubated with primary mouse, rat, monkey (Macaque) and human hepatocytes for 1 h, and the presence of metabolites was assessed using liquid […] mass spectroscopy. The stability of VSN16R was assessed in vivo by Inpharmatica, Cyprotex and Charles Rivers, Cambridge. Blood (plasma) samples were obtained prior to and 5 min to 24 h after drug administration of 2–5 mg·kg^−1 i.v. or 5 mg·kg^−1 p.o. VSN16R into outbred mice and rats (n = 3 per time point). In addition, plasma, brain and spinal cord samples were obtained from ABH with spastic EAE. Immediately after blood collection, the brain and spinal cord were removed and then stored at −20°C prior to assay. Tissue samples were weighed, homogenized and centrifuged, and the lysates generated. Brain lysates and plasma were assayed by LC–MS methods by Inpharmatica/Charles Rivers, Cambridge, UK. This was also performed using a Waters Xevo TQ or API4000, AB Sciex mass spectrometer using spiked samples as standards. PK Solutions Software (Summit Research Services, Montrose, CO, USA), AB Sciex Analyst software combined with Thermo Fisher Scientific Watson LIMS processing and reporting software or WinNonLin pharmacokinetic or PK solutions 2.0 software (Summit Research Services, Montrose CO, USA) were used to produce PK parameters. Data are expressed as mean ± SEM. The detection limit of VSN16R was 2 ng·mL^−1 in plasma and brain and 14 ng·mL^−1 in spinal cords. The detection limit of VSN22R was 2 ng·mL^−1 in plasma and 0.1 ng·mL^−1 for VSN44R in plasma. Pharmacokinetics in toxicological samples in rats (n = 6 per group), dogs (n = 6 per group) and humans (n = 6 per group) were performed by Charles Rivers (Edinburgh, UK).

mouse vas deferens = assay: Electrically‐evoked contraction of the mouse vas deferens; type: cell-based; settings: Mus musculus; read-out: EC50, inhibition of electrically‐evoked contraction
Procedure: Vasa deferentia were obtained from outbred MF‐1 mice and mounted vertically in a 4 mL organ bath at an initial tension of 0.5 g. The baths contained Mg^2+‐free Krebs solution (NaCl 118.2 mM, KCl 4.75 mM, KH2PO4 1.19 mM, NaHCO3 25.0 mM, glucose 11.0 mM and CaCl2·6H2O 2.54 mM), which was kept at 35–36°C and bubbled with 95% O2 and 5% CO2. […] Contractions were monitored by a computer using a data recording and analysis system as described previously (Ross et al., 2001). After placement in an organ bath, each tissue was subjected to a stimulation‐free period of 10 min and then stimulated for 10 min. Tissues were then subjected to alternate periods of stimulation (5 min) and rest (10 min) until consistent twitch amplitudes were obtained. This equilibration procedure was followed by a stimulation‐free period of 25 min. Tissues were then stimulated for 5 min after which the first agonist addition was made and stimulation continued until the end of the experiment.

rat mesenteric artery = assay: Methoxamine‐evoked contraction of rat mesenteric artery; type: cell-based; settings: 50 nM blocker pretreatment
Procedure: Vessels were equilibrated and set to a basal tension of 2 to 2.5 mN. The integrity of the endothelium was assessed by pre‐contracting the vessel with 10 μM methoxamine (an α1‐adrenoceptor agonist), followed by relaxation with 10 μM carbachol (a muscarinic acetylcholine receptor agonist); vessels showing relaxations of greater than 90% were designated as endothelium‐intact. When the endothelium was not required, it was removed by rubbing the intima with a human hair; carbachol‐induced relaxation of less than 10% indicated successful removal. After the test for endothelial integrity, vessels were left for 30 min and then pre‐contracted with 10 μM methoxamine. This was followed by construction of a cumulative concentration–relaxation curve to VSN16R (10 nM–1 μM). […] Most experiments were performed in matched vessels; effects of blockers or endothelial removal were compared with the control responses obtained in separate vessels of the same rats. All relaxant responses are expressed as percentage relaxation of the tone induced by methoxamine. Values are given as mean ± SEM. Statistical comparisons of concentration‐dependent responses were made by two‐way ANOVA using Prism 4 (GraphPad Software, Inc, San Diego, CA, USA).

[5] = i.p., 40 mg·kg^−1 BMS‐204352, 20 mg·kg^−1 NS‐1619, 10 mg·kg^−1 NS‐11021

Compound: COc1ccc(Cl)cc1[C@]1(F)C(=O)Nc2cc(C(F)(F)F)ccc21 [BMS‐204352, reference compound]
- Inhibition of spasticity [1, 5]: significantly inhibit spasticity
- Sedation [1, 5]: without causing sedation

Compound: N#Cc1cc2[nH]c(=O)c(=O)[nH]c2cc1[N+](=O)[O-] [CNQX, reference compound]
- Inhibitory response on repeated dosing ([1]; repeated 25 mg·kg^−1 s.c.): inhibitory responses that diminished over time

Compound: CCCCCCC(C)(C)c1cc(O)c2c(c1)OC(C)(C)[C@@H]1CC=C(C(=O)O)C[C@@H]21 [CT3, 1′, 1′‐dimethylheptyl‐M8‐tetrahydrocannabinol‐11‐oic acid]
- Temperature loss (ABH mice [2]; 20 min, spastic animals): 2.3 ± 0.4 °C
- Temperature loss (ABH mice [2]; healthy mice): 0.0 ± 0.1 °C

Compound: O=c1[nH]c2cc(C(F)(F)F)ccc2n1-c1cc(C(F)(F)F)ccc1O [NS‐1619, reference compound]
- Inhibition of spasticity [1, 5]: significantly inhibit spasticity
- Sedation [1, 5]: without causing sedation

Compound: FC(F)(F)c1cc(NC(=S)Nc2ccc(Br)cc2-c2nn[nH]n2)cc(C(F)(F)F)c1 [NS‐11021, reference compound]
- Inhibition of spasticity [1, 5]: significantly inhibit spasticity
- Sedation [1, 5]: without causing sedation

Compound: Cc1c(C(=O)c2cccc3ccccc23)c2cccc3c2n1[C@H](CN1CCOCC1)CO3 [R(+)WIN55‐212]
- Hypothermia (ABH mice [2]; 1 mg·kg^−1 i.v., 20 min after administration): significant sedative effects
- Hypomotility in open field (ABH mice [3]; 1 mg·kg^−1 i.v., 30 min after administration): significant sedative effects

Compound: C[C@@H](NC(=O)c1cccc(/C=C\CCCC(=O)N(C)C)c1)C(=O)O [VSN44R, (Z)‐(3‐(6‐(dimethylamino)‐6‐oxohex‐1‐en‐1‐yl)benzoyl)‐D‐alanine]
- Single BKCa channel activity (BKCa channel): facilitated single BKCa channel activity
- Plasma level of the named species [4]: 2.1 ± 0.3 ng/mL
- Inhibition of spasticity ([1]; 5 mg·kg^−1 i.v.): could inhibit the spasticity
- EC50 (mouse vas deferens): 1 nM

Compound: NCC(CC(=O)O)c1ccc(Cl)cc1 (stereo not shown) [baclofen, reference compound]
- Sedation (hypomotility, hypothermia) (ABH mice [3]; 5 mg·kg^−1 i.v.): significant sedation
- Inhibition of spasticity ([1]; 5 mg·kg^−1 i.v.): comparable inhibition of spasticity
- Inhibitory response on repeated dosing ([1]; repeated 5 mg·kg^−1 p.o.): inhibitory responses that diminished over time

Compound: CC(C)(O)[C@H]1O[C@H]2CC[C@@]3(C)[C@@](O)(CC[C@H]4Cc5c([nH]c6ccccc56)[C@@]43C)C2=CC1=O [paxilline, reference compound]
- Effect on baseline level of spasticity ([1]; 1 mg·kg^−1 i.p.): did not influence the baseline level of spasticity
- Effect of pretreatment on the action of VSN16R ([1]; 1 mg·kg^−1 i.p. before 5 mg·kg^−1 p.o. VSN16R): completely inhibit the action of VSN16R

Compound: Apamin: KCa2.2/2.3 (KCNN2/KCNN3) channel antagonist (CNCKAPETALCARRCQQHG)
- Effect of the blocker on VSN16R vasorelaxation (rat mesenteric artery): small inhibitory effect

Compound: charybdotoxin
- Effect of the blocker on VSN16R vasorelaxation (rat mesenteric artery): significantly inhibited
